# Results taken from PubChem BioAssay AID1259407 (Chemical Carcinogenesis Research Information System (CCRIS), 2018).
# The source made the active and inactive calls. How the calls were made is not given here.
# System: CCRIS mutagenicity, Ames/micronucleus/aberration tests
# Test: CCRIS mutagenicity studies
# [1] = Test System: AMES SALMONELLA TYPHIMURIUM, Strain/Indicator: TA98, Metabolic Activation: NONE, Method: STANDARD PLATE
# [2] = Test System: AMES SALMONELLA TYPHIMURIUM, Strain/Indicator: TA100, Metabolic Activation: NONE, Method: PREINCUBATION
# [3] = Test System: AMES SALMONELLA TYPHIMURIUM, Strain/Indicator: TA100, Metabolic Activation: NONE, Method: STANDARD PLATE
# [4] = Test System: AMES SALMONELLA TYPHIMURIUM, Strain/Indicator: TA1537, Metabolic Activation: NONE, Method: STANDARD PLATE
# [5] = Test System: AMES SALMONELLA TYPHIMURIUM, Strain/Indicator: TA1538, Metabolic Activation: NONE, Method: STANDARD PLATE
smiles,measurement,setting,value
c1ccc2c(c1)cc1c3c2ccc2cccc(c23)C2OC12 (centres undefined),mutagenic call,"Test System: AMES SALMONELLA TYPHIMURIUM, Strain/Indicator: TA98, Metabolic Activation: NONE, Method: HOST-MEDIATED",inactive; negative
same,mutagenic call,[1],active; positive
same,mutagenic call,"Test System: AMES SALMONELLA TYPHIMURIUM, Strain/Indicator: TA98, Metabolic Activation: RAT, LIVER, S-9, KC500 OR PHENOBARBITAL, Method: LIQUID SUSPENSION",active; positive
same,mutagenic call,"Test System: AMES SALMONELLA TYPHIMURIUM, Strain/Indicator: TA100, Metabolic Activation: MICROSOMAL EPOXIDE HYDROLASE, Method: PREINCUBATION",active; positive
same,mutagenic call,"Test System: AMES SALMONELLA TYPHIMURIUM, Strain/Indicator: TA100, Metabolic Activation: NONE, Method: HOST-MEDIATED",inactive; negative
same,mutagenic call,[2],active; positive
same,mutagenic call,[3],active; positive
same,mutagenic call,"Test System: AMES SALMONELLA TYPHIMURIUM, Strain/Indicator: TA100, Metabolic Activation: RAT, LIVER, S-9, KC500 OR PHENOBARBITAL, Method: LIQUID SUSPENSION",active; positive
same,mutagenic call,[4],active; positive
same,mutagenic call,"Test System: AMES SALMONELLA TYPHIMURIUM, Strain/Indicator: TA1538, Metabolic Activation: NONE, Method: HOST-MEDIATED",inactive; negative
same,mutagenic call,[5],active; positive
same,mutagenic call,"Test System: CHINESE HAMSTER V-79, Strain/Indicator: V-79/6-THIOGUANINE, Metabolic Activation: NONE, Method: REPLATING",active; positive
same,mutagenic call,"Test System: CHINESE HAMSTER V-79, Strain/Indicator: V-79/6-THIOGUANINE, Metabolic Activation: NONE, Method: STANDARD PLATE",active; positive
same,mutagenic call,"Test System: CHINESE HAMSTER V-79, Strain/Indicator: V-79/8-AZAGUANINE, Metabolic Activation: NONE, Method: STANDARD PLATE",active; positive
same,mutagenic call,"Test System: CHINESE HAMSTER V-79, Strain/Indicator: V-79/OUABAIN, Metabolic Activation: NONE, Method: STANDARD PLATE",active; positive
same,mutagenic call,"Test System: E. COLI, Strain/Indicator: WP2UVRA, Metabolic Activation: NONE, Method: STANDARD PLATE",active; positive
same,mutagenic call,"Test System: UDS HUMAN CELLS, Strain/Indicator: THY INCORP (NON-S-PHASE), Metabolic Activation: NONE, Method: LIQUID SCINTILLATION COUNTING",active; positive
N=C(N)c1ccc2cc(C(=N)N)[nH]c2c1,mutagenic call,[1],inactive; negative
same,mutagenic call,"Test System: AMES SALMONELLA TYPHIMURIUM, Strain/Indicator: TA98, Metabolic Activation: RAT, LIVER, S-9, PHENOBARBITAL, Method: STANDARD PLATE",inactive; negative
same,mutagenic call,[3],inactive; negative
same,mutagenic call,"Test System: AMES SALMONELLA TYPHIMURIUM, Strain/Indicator: TA100, Metabolic Activation: RAT, LIVER, S-9, PHENOBARBITAL, Method: STANDARD PLATE",inactive; negative
CC(C)(C#N)C(C)(C)C#N,mutagenic call,"Test System: AMES SALMONELLA TYPHIMURIUM, Strain/Indicator: TA97, Metabolic Activation: HAMSTER, LIVER, S-9, AROCLOR 1254 (10 OR 30%), Method: PREINCUBATION",inactive; negative
same,mutagenic call,"Test System: AMES SALMONELLA TYPHIMURIUM, Strain/Indicator: TA97, Metabolic Activation: NONE, Method: PREINCUBATION",inactive; negative
same,mutagenic call,"Test System: AMES SALMONELLA TYPHIMURIUM, Strain/Indicator: TA97, Metabolic Activation: RAT, LIVER, S-9, AROCLOR 1254 (10 OR 30%), Method: PREINCUBATION",inactive; negative
same,mutagenic call,"Test System: AMES SALMONELLA TYPHIMURIUM, Strain/Indicator: TA97, Method: PREINCUBATION",inactive; negative
same,mutagenic call,"Test System: AMES SALMONELLA TYPHIMURIUM, Strain/Indicator: TA98, Metabolic Activation: HAMSTER, LIVER, S-9, AROCLOR 1254 (10 OR 30%), Method: PREINCUBATION",inactive; negative
same,mutagenic call,"Test System: AMES SALMONELLA TYPHIMURIUM, Strain/Indicator: TA98, Metabolic Activation: HAMSTER, LIVER, S-9, AROCLOR 1254, Method: STANDARD PLATE",inactive; negative
same,mutagenic call,"Test System: AMES SALMONELLA TYPHIMURIUM, Strain/Indicator: TA98, Metabolic Activation: NONE, Method: PREINCUBATION",inactive; negative
same,mutagenic call,[1],inactive; negative
same,mutagenic call,"Test System: AMES SALMONELLA TYPHIMURIUM, Strain/Indicator: TA98, Metabolic Activation: RAT, LIVER, S-9, AROCLOR 1254 (10 OR 30%), Method: PREINCUBATION",inactive; negative
same,mutagenic call,"Test System: AMES SALMONELLA TYPHIMURIUM, Strain/Indicator: TA98, Metabolic Activation: RAT, LIVER, S-9, AROCLOR 1254, Method: STANDARD PLATE",inactive; negative
same,mutagenic call,"Test System: AMES SALMONELLA TYPHIMURIUM, Strain/Indicator: TA98, Method: PREINCUBATION",inactive; negative
same,mutagenic call,"Test System: AMES SALMONELLA TYPHIMURIUM, Strain/Indicator: TA100, Metabolic Activation: HAMSTER, LIVER, S-9, AROCLOR 1254 (10 OR 30%), Method: PREINCUBATION",inactive; negative
same,mutagenic call,"Test System: AMES SALMONELLA TYPHIMURIUM, Strain/Indicator: TA100, Metabolic Activation: HAMSTER, LIVER, S-9, AROCLOR 1254, Method: STANDARD PLATE",inactive; negative
same,mutagenic call,[2],inactive; negative
same,mutagenic call,[3],inactive; negative
same,mutagenic call,"Test System: AMES SALMONELLA TYPHIMURIUM, Strain/Indicator: TA100, Metabolic Activation: RAT, LIVER, S-9, AROCLOR 1254 (10 OR 30%), Method: PREINCUBATION",inactive; negative
same,mutagenic call,"Test System: AMES SALMONELLA TYPHIMURIUM, Strain/Indicator: TA100, Metabolic Activation: RAT, LIVER, S-9, AROCLOR 1254, Method: STANDARD PLATE",inactive; negative
same,mutagenic call,"Test System: AMES SALMONELLA TYPHIMURIUM, Strain/Indicator: TA100, Method: PREINCUBATION",inactive; negative
same,mutagenic call,"Test System: AMES SALMONELLA TYPHIMURIUM, Strain/Indicator: TA102, Metabolic Activation: NONE, Method: PREINCUBATION",inactive; negative
same,mutagenic call,"Test System: AMES SALMONELLA TYPHIMURIUM, Strain/Indicator: TA102, Method: PREINCUBATION",inactive; negative
same,mutagenic call,"Test System: AMES SALMONELLA TYPHIMURIUM, Strain/Indicator: TA1535, Metabolic Activation: HAMSTER, LIVER, S-9, AROCLOR 1254 (10 OR 30%), Method: PREINCUBATION",inactive; negative
same,mutagenic call,"Test System: AMES SALMONELLA TYPHIMURIUM, Strain/Indicator: TA1535, Metabolic Activation: HAMSTER, LIVER, S-9, AROCLOR 1254, Method: STANDARD PLATE",inactive; negative
same,mutagenic call,"Test System: AMES SALMONELLA TYPHIMURIUM, Strain/Indicator: TA1535, Metabolic Activation: NONE, Method: PREINCUBATION",inactive; negative
same,mutagenic call,"Test System: AMES SALMONELLA TYPHIMURIUM, Strain/Indicator: TA1535, Metabolic Activation: NONE, Method: STANDARD PLATE",inactive; negative
same,mutagenic call,"Test System: AMES SALMONELLA TYPHIMURIUM, Strain/Indicator: TA1535, Metabolic Activation: RAT, LIVER, S-9, AROCLOR 1254 (10 OR 30%), Method: PREINCUBATION",inactive; negative
same,mutagenic call,"Test System: AMES SALMONELLA TYPHIMURIUM, Strain/Indicator: TA1535, Metabolic Activation: RAT, LIVER, S-9, AROCLOR 1254, Method: STANDARD PLATE",inactive; negative
same,mutagenic call,[4],inactive; negative
same,mutagenic call,"Test System: AMES SALMONELLA TYPHIMURIUM, Strain/Indicator: TA1537, Metabolic Activation: RAT, LIVER, S-9, AROCLOR 1254, Method: STANDARD PLATE",inactive; negative
same,mutagenic call,"Test System: AMES SALMONELLA TYPHIMURIUM, Strain/Indicator: TA1538, Metabolic Activation: HAMSTER, LIVER, S-9, AROCLOR 1254, Method: STANDARD PLATE",inactive; negative
same,mutagenic call,[5],inactive; negative
same,mutagenic call,"Test System: AMES SALMONELLA TYPHIMURIUM, Strain/Indicator: TA1538, Metabolic Activation: RAT, LIVER, S-9, AROCLOR 1254, Method: STANDARD PLATE",inactive; negative
same,mutagenic call,"Test System: MOUSE LYMPHOMA, Strain/Indicator: L5178Y (TK+/TK-), Metabolic Activation: NONE, Method: SUSPENSION/PLATE",inactive; negative. reevaluation of results: negative
same,mutagenic call,"Test System: MOUSE LYMPHOMA, Strain/Indicator: L5178Y (TK+/TK-), Metabolic Activation: RAT, LIVER, S-9, AROCLOR 1254, Method: SUSPENSION/PLATE",inactive; negative. reevaluation of results: negative
